In publication PMC12036557, “Functional Imaging of CYP3A4 at Multiple Dimensions Using an AI‐Driven High Performance Fluorogenic Substrate” (Small (Weinheim an Der Bergstrasse, Germany), 2025):

These molecules were tested against T1, CYP3A4 (Homo sapiens, UniProt P08684) (assay: in vitro). Settings: pH 7.4.
T1 sequence (P08684 whole entry): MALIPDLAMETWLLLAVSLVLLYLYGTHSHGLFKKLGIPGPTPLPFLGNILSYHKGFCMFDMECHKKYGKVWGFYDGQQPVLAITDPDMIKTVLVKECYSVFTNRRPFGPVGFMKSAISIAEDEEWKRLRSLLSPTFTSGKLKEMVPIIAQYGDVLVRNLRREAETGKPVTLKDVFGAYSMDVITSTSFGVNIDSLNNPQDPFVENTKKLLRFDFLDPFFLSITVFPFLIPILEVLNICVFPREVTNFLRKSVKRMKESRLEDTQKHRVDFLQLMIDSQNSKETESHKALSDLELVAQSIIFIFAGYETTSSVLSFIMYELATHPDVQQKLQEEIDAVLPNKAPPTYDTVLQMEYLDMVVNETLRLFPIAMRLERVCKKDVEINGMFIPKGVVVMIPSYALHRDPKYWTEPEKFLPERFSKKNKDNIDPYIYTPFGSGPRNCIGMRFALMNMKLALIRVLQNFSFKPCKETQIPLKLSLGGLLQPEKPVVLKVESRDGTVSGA

| SMILES | activity at 30 min, 1 µM [%] | activity at 1 µM [%] |
| --- | --- | --- |
| CCN1C[C@]2(COC)[C@H](O)C[C@H](OC)[C@@]34[C@@H]5C[C@@]6(O)[C@H](OC(=O)c7ccccc7)[C@@H]5[C@@](OC(C)=O)([C@@H]([C@H](OC)[C@H]23)[C@@H]14)[C@@H](O)[C@@H]6OC [Aconitine] | 94.8 | – |
| O=c1c(-c2ccc(O)cc2)coc2cc(O)ccc12 [Daidzein] | 97.4 | – |
| COc1ccc2cc1Oc1ccc(cc1)C[C@H]1c3cc(c(OC)cc3CCN1C)Oc1c(OC)c(OC)cc3c1[C@H](C2)N(C)CC3 [Tetrandrine] | 95.2 | – |
| COC[C@@]12CC[C@H](OC)[C@]34C(C([C@H](OC)[C@H]13)[C@]1(OC(C)=O)[C@H]3[C@@H](OC(=O)c5ccccc5)[C@](O)(C[C@H]34)[C@@H](OC)[C@@H]1O)N(C)C2 [Hypaconitine] | – | 94.9 |
| C=C1[C@H]2C[C@@]3([C@@H]1O)[C@@H](CC2=O)[C@]12[C@@H]4C[C@H]3[C@H]1N(CC)C[C@]4(C)CC[C@@H]2O [Songorine] | – | 104 |
| c1c2c(cc3c1OCO3)-c1cc3ccc4c(c3c[n+]1CC2)OCO4 [Coptisine] | – | 77.9 |
| CC1(C)CC[C@]2(C(=O)O)CC[C@]3(C)C(=CC[C@@H]4[C@@]5(C)CC[C@H](O)C(C)(C)[C@@H]5CC[C@]43C)[C@@H]2C1 [Oleanolic acid] | – | 70.2 |
| COc1ccc([C@@H]2CC(=O)c3c(O)cc(O)cc3O2)cc1O [Hesperetin] | 96.8 | – |
| COc1ccc(-c2cc(=O)c3c(OC)c(OC)c(OC)c(OC)c3o2)cc1OC [Nobiletin] | 102 | – |
| COc1ccc2c(c[n+](C)c3c4cc5c(cc4ccc23)OCO5)c1OC [Chelerythrine] | – | 89.6 |
| O=C1C=CC[C@@H]2[C@H]3CCC[N+]4([O-])CCC[C@@H](CN12)[C@@H]34 (stereo partly drawn) [Oxysophocarpine] | – | 96.1 |
| CN1[C@@H]2CC[C@H]1C[C@@H](OC(=O)[C@H](CO)c1ccccc1)C2 [Hyoscyamine] | – | 98 |
| CN1[C@@H]2C[C@@H](OC(=O)[C@H](CO)c3ccccc3)C[C@H]1[C@@H]1O[C@@H]12 [Scopolamine] | – | 98.8 |
| COc1ccc(-c2oc3c(CC=C(C)C)c(O)cc(O)c3c(=O)c2O)cc1 [Icaritin] | 90.1 | – |
| COc1ccc(-c2cc(=O)c3c(O)c(OC)c(O)cc3o2)cc1 [Pectolinarigenin] | 98 | – |
| O=C1C[C@@H]2OCC=C3CN4CC[C@]56c7ccccc7N1[C@H]5[C@H]2[C@H]3C[C@H]46 [Strychnine] | 96.3 | – |
| O=C1C=CC[C@@H]2[C@H]3CCCN4CCC[C@@H](CN12)[C@@H]34 [Sophocarpine] | 94.1 | – |
| O=C1c2ccccc2C(=O)c2ccccc21 [Anthraquinone] | 94.3 | – |
| CC[C@@]1(O)C(=O)OCc2c1cc1n(c2=O)Cc2cc3ccccc3nc2-1 [Camptothecin] | 93.8 | – |
| O=c1cccc2n1C[C@@H]1CNC[C@H]2C1 [Cytisine] | – | 94.1 |
| COc1ccc2c(c1)[nH]c1c(C)nccc12 [Harmine] | – | 101 |
| C=CCc1ccc(O)c(-c2cc(CC=C)ccc2O)c1 [Magnolol] | – | 106 |

Each molecule was assayed against T1, CYP3A4 (assay: NFa-based screening and characterizing of hCYP3A4 inhibitors in HLMs). Settings: human, human liver microsomes, pH 7.4, probe NFa (4-hydroxylation to 4-HNFa).

| SMILES | activity at 30 min, 1 µM [%] |
| --- | --- |
| COc1cc(O)c(C(=O)/C=C/c2ccc3ccccc3c2)c(OC)c1OC [D9, (E)-1-(6-hydroxy-2,3,4-trimethoxyphenyl)-3-(naphthalen-2-yl)prop-2-en-1-one] | 85 |
| O=C(O)c1ccc(O)c(O)c1 [Protocatechuic acid] | 109 |
| O=c1c(O)c(-c2ccccc2)oc2cc(O)cc(O)c12 [Galangin] | 94 |
| COc1cc(O)c(C(=O)/C=C/c2ccc3nccnc3c2)c(OC)c1 [D18, (E)-1-(2-hydroxy-4,6-dimethoxyphenyl)-3-(quinoxalin-6-yl)prop-2-en-1-one] | 54 |
| Nc1cccc2c1C(=O)c1ccccc1C2=O [1-Aminoanthraquinone] | 62.6 |
| O=C1c2cccc(Cl)c2C(=O)c2c(Cl)cccc21 [1,8-Dichloroanthraquinone] | 85.5 |
| CC(C)=CCc1c(O)ccc(C(=O)/C=C/c2ccc(O)cc2)c1O [Isobavachalcone] | 54.2 |
| Oc1ccc(/C=C/c2cc(O)cc(O)c2)cc1 [Resveratrol] | 72.1 |
| COc1cc(O)cc2c1C(=O)C[C@@H](c1ccccc1)O2 [Alpinetin] | 95.7 |
| COc1cc2c(cc1OC)[C@@H](Cc1ccc(Oc3cc(C[C@@H]4c5cc(OC)c(OC)cc5CCN4C)ccc3O)cc1)N(C)CC2 [Dauricine] | 92.8 |
| O=C1c2ccc(Br)cc2C(=O)c2ccc(Br)cc21 [2,6-Dibromoanthraquinone] | 85.5 |
| O=C1c2ccc(O)cc2C(=O)c2ccc(O)cc21 [2,6-Dihydroxyanthraquinone] | 88.8 |
| COc1c(O)cc2occ(-c3ccc(O)cc3)c(=O)c2c1O [Tectorigenin] | 95.5 |
| COc1ccc(-c2coc3cc(O)ccc3c2=O)cc1O [Calycosin] | 99.3 |
| O=c1c(O)c(-c2ccc(O)cc2)oc2c(O)c(O)cc(O)c12 [Herbacetin] | 91.1 |
| COc1cc(C[C@H]2C(=O)OC[C@@H]2Cc2ccc(OC)c(OC)c2)ccc1O [Arctigenin] | 103 |

More lines, now with the values ahead:

| activity at 30 min, 1 µM [%] | SMILES |
| --- | --- |
| 49.9 | COc1ccc(-c2cc(=O)c3c(O)cc(O)cc3o2)cc1 [Acacetin] |
| 66.9 | CC1(C)[C@@H](O)CC[C@]2(C)[C@H]3C(=O)C=C4[C@@H]5C[C@@](C)(C(=O)O)CC[C@]5(C)CC[C@@]4(C)[C@]3(C)CC[C@@H]12 [Glycyrrhetinic acid] |
| 99.3 | C[C@H]1[C@H](C)CC[C@]2(C(=O)O)CC[C@]3(C)C(=CC[C@@H]4[C@@]5(C)CC[C@H](O)C(C)(C)[C@@H]5CC[C@]43C)[C@H]12 [Ursolic acid] |
| 73.5 | Cc1c(O)c(C)c2c(c1O)C(=O)C[C@@H](c1ccc(O)cc1)O2 [Farrerol] |
| 64.5 | O=C(/C=C/c1ccc2nccnc2c1)c1ccccc1O [D15, (E)-1-(2-hydroxyphenyl)-3-(quinoxalin-6-yl)prop-2-en-1-one] |
| 100 | COc1cccc(O)c1C(=O)/C=C/c1ccc2nc(Cl)ccc2c1 [D16, (E)-3-(2-chloroquinolin-6-yl)-1-(2-hydroxy-6-methoxyphenyl)prop-2-en-1-one] |
| 63.9 | COc1cccc(C(=O)/C=C/c2ccc3nccnc3c2)c1 [D14, (E)-1-(3-methoxyphenyl)-3-(quinoxalin-6-yl)prop-2-en-1-one] |
| 102 | COc1cc2c(cc1OC)C(=O)/C(=C/c1ccco1)C2 [D2, (E)-2-(Furan-2-ylmethylene)-5,6-dimethoxy-2,3-dihydro-1H-inden-1-one] |
| 67.8 | COc1ccc(/C=C2\Cc3cc(OC)c(OC)cc3C2=O)cc1 [D6, (E)-5,6-Dimethoxy-2-(4-methoxybenzylidene)-2,3-dihydro-1H-inden-1-one] |
| 59.9 | COc1cc(O)c(CC=C(C)C)c(O)c1C(=O)/C=C/c1ccc(O)cc1 [Xanthohumol] |
| 85.3 | O=c1cc(-c2ccccc2)oc2c(O)c(O)cc(O)c12 [Norwogonin] |
| 79.8 | CCc1ccc2c(c1)C(=O)c1ccccc1C2=O [2-Ethyl anthraquinone] |
| 104 | COc1cc2c(=O)c(-c3ccc(O)cc3)coc2cc1O [Glycitein] |
| 75.9 | COc1cc2c(cc1OC)C(=O)/C(=C/c1ccc(-c3ccccc3)cc1)C2 [D3, (E)-2-([1,1'-Biphenyl]-4-ylmethylene)-5,6-dimethoxy-2,3-dihydro-1H-inden-1-one] |
| 87.9 | CC(C)=CCc1cc(-c2coc3cc(O)ccc3c2=O)ccc1O [Neobavaisoflavone] |
| 95.7 | COc1ccccc1C(=O)/C=C/c1ccc2ccccc2c1 [D7, (E)-1-(2-methoxyphenyl)-3-(naphthalen-2-yl)prop-2-en-1-one] |

| activity at 30 min, 1 µM [%] | SMILES |
| --- | --- |
| 83.6 | Cc1ccc2c(c1)C(=O)c1ccccc1C2=O [2-Methyl anthraquinone] |
| 97.3 | O=C(CCc1ccc(O)cc1)c1c(O)cc(O)cc1O [Phloretin] |
| 98.9 | COc1ccc(-c2coc3cc(O)ccc3c2=O)cc1 [Formononetin] |
| 88 | O=C(/C=C/c1ccc2ccccc2c1)c1ccccc1O [D8, (E)-1-(2-hydroxyphenyl)-3-(naphthalen-2-yl)prop-2-en-1-one] |
| 103 | COc1c(OC)c2occc2c2oc(=O)ccc12 [Pimpinellin] |
| 58.1 | COc1cc2c(cc1OC)C(=O)/C(=C/c1ccccc1C)C2 [D4, (E)-5,6-Dimethoxy-2-(2-methylbenzylidene)-2,3-dihydro-1H-inden-1-one] |
| 47.6 | COc1cc(O)ccc1/C=C/C(=O)c1ccc(O)cc1 [Echinatin] |
| 99.8 | O=C1c2cccc(O)c2C(=O)c2cccc(O)c21 [1,5-Dihydroxyanthraquinone] |
| 83.6 | COc1ccc(C(=O)/C=C/c2ccc3nc(Cl)ccc3c2)c(O)c1 [D17, (E)-3-(2-chloroquinolin-6-yl)-1-(2-hydroxy-4-methoxyphenyl)prop-2-en-1-one] |
| 90.5 | O=C1c2ccccc2C(=O)c2c(O)cccc21 [1-Hydroxy anthraquinone] |
| 67.9 | O=c1c(O)c(-c2ccc(O)cc2)oc2cc(O)cc(O)c12 [Kaempferol] |
| 70 | COc1cc(O)c(C(=O)/C=C/c2ccc3ncccc3c2)c(OC)c1OC [D12, (E)-1-(6-hydroxy-2,3,4-trimethoxyphenyl)-3-(quinolin-6-yl)prop-2-en-1-one] |
| 72.3 | COc1cc2c(cc1OC)C(=O)/C(=C/c1cccc(C)c1)C2 [D5, (E)-5,6-dimethoxy-2-(3-methylbenzylidene)-2,3-dihydro-1H-inden-1-one] |
| 98 | O=C(O)c1ccc2c(c1)C(=O)c1ccccc1C2=O [Anthraquinone-2-carboxylic acid] |
| 71.6 | CC(C)=CCc1cc2c(cc1O)O[C@H](c1ccc(O)cc1)CC2=O [Bavachin] |
